According to patent US10638755B2, “Antimicrobial compositions” (Symrise AG, priority 2013, dated 2020):
Like-named read-outs stand apart in the source and are kept apart here.

How the values were obtained:
[1] = system: Candida albicans; test: Minimum inhibitory concentration (MIC) according to DIN 58940 and Kull Synergy Index; format: cell-based; settings: for MIC: Candida albicans
[2] = system: Staphylococcus aureus; test: as above; format: cell-based; settings: for MIC: Staphylococcus aureus
[3] = system: Aspergillus brasiliensis; test: as above; format: cell-based; settings: for MIC: Aspergillus brasiliensis
[4] = system: Escherichia coli; test: as above; format: cell-based; settings: for MIC: Escherichia coli
[5] = system: Pseudomonas aeruginosa; test: as above; format: cell-based; settings: for MIC: Pseudomonas aeruginosa
[6] = system: A. brasiliensis; test: Colony counts in formulation over 28 days and Kull Synergy Index against A. brasiliensis; format: cell-based, Aspergillus brasiliensis
Excerpt: To calculate the synergism between compounds of formula (I) and other antimicrobial actives, the Kull equation^1 2 was used SI=(Cmixture×PA)/CA+(Cmixture×PB)/CB (I) where • SI is the Synergy Index according to Kull^1), 2) • CA is the cell count for substance A • CB is the cell count for substance B • Cmixture is the cell count for the mixture of substances A and B • PA is the proportion of the substance A in the mixture • PB is the proportion of the substance B in the mixture.
Colony counts of <100 were arbitrarily set to 100, in order to allow for synergy calculations with the above equation. The abbreviation “n.a.” means not applicable.

[7] = system: subcuteaneous inflammation; settings: administered intraperitoneally; Il Farmaco 2000; cited from earlier work
[8] = chemical in vitro assay; constituents of Tagetes mendocina; cited from earlier work
[9] = system: mold; settings: moist alfalfa hay; Agronomy Journal 1955; cited from earlier work
[10] = day 0, 1.0% (total) in formulation
[11] = day 2, 1.0% (total) in formulation
[12] = day 7, 1.0% (total) in formulation
[13] = day 14, 1.0% (total) in formulation
[14] = day 28, 1.0% (total) in formulation

For `CCCCCCC(O)CO` (stereo not drawn) [1,2-Octanediol], the MIC ([1]; DIN 58940) was 5000 µg/mL, the MIC ([2]; DIN 58940) was 5000 µg/mL and the MIC ([3]; DIN 58940) was 1000 µg/mL. The MIC ([4]; DIN 58940) was 2500 µg/mL and the MIC ([5]; DIN 58940) was 5000 µg/mL.

With `OCCCO` [1,3-Propanediol] the “MIC values Candida albicans” value ([1]; DIN 58940) was 100000 ppm, the “MIC values Staphylococcus aureus” value ([2]; DIN 58940) was 125000 ppm and the “MIC values Aspergillus brasiliensis” value ([3]; DIN 58940) was 150000 ppm. For the same compound, the “MIC values Escherichia coli” value ([4]; DIN 58940) was 100000 ppm and the “MIC values Pseudomonas aeruginosa” value ([5]; DIN 58940) was 100000 ppm.

For `OCCCc1ccccc1` [3-Phenylpropanol], the MIC ([1]; DIN 58940) was 5000 µg/mL, the MIC ([2]; DIN 58940) was 2000 µg/mL and the MIC ([3]; DIN 58940) was 2000 µg/mL. For the same compound, the MIC ([4]; DIN 58940) was 2000 µg/mL and the MIC ([5]; DIN 58940) was 2000 µg/mL.

In the case of `CCCCCCCOCC(O)CO` (stereo not drawn) [3HOPD, 3-heptyloxy-1,2-propanediol], the Colony counts [6, 10] is reported as 220.000 cfu/g formulation, the Relative colony counts [6, 10] is reported as 1.0000 and the Colony counts [6, 11] is reported as 320.000 cfu/g formulation. The Relative colony counts [6, 11] was 1.4545, the Colony counts [6, 12] was 340.000 cfu/g formulation and the Relative colony counts [6, 12] was 1.5455. The Colony counts [6, 13] was 300.000 cfu/g formulation, the Relative colony counts [6, 13] was 1.3636 and the Colony counts [6, 14] was 170.000 cfu/g formulation. The Relative colony counts [6, 14] was 0.7727.

In the case of `CC(=O)c1ccc(O)cc1` [4HAP, 4-hydroxyacetophenone], the MIC ([1]; DIN 58940) is given as 6000 µg/mL, the MIC ([2]; DIN 58940) is given as 6000 µg/mL and the anti-inflammatory activity [7] is given as “reducing subcuteaneous inflammation”. For the same compound, the MIC ([3]; DIN 58940) was 4000 µg/mL, the antioxidant activity [8] was “one of the active constituents” and the MIC ([4]; DIN 58940) was 4000 µg/mL. The “prevention of mold growth” value [9] was “not prevent mold growth”, the Colony counts [6, 10] was 300.000 cfu/g formulation and the Relative colony counts [6, 10] was 1.0000. The Colony counts [6, 11] was 56.000 cfu/g formulation, the Relative colony counts [6, 11] was 0.1867 and the Colony counts [6, 12] was 1.900 cfu/g formulation. It also gave a Relative colony counts [6, 12] of 0.0063, a Colony counts [6, 13] of 1.900 cfu/g formulation and a Relative colony counts [6, 13] of 0.0063. For the same compound, the Colony counts [6, 14] was <100 cfu/g formulation, the Relative colony counts [6, 14] was 0.0003 and the MIC ([5]; DIN 58940) was 4000 µg/mL.

For `OCC(O)COCc1ccccc1` (stereo not drawn) [Benzylglycerin], the “MIC values Candida albicans” value ([1]; DIN 58940) was 20000 ppm, the “MIC values Staphylococcus aureus” value ([2]; DIN 58940) was 20000 ppm and the “MIC values Aspergillus brasiliensis” value ([3]; DIN 58940) was 20000 ppm. The “MIC values Escherichia coli” value ([4]; DIN 58940) was 10000 ppm and the “MIC values Pseudomonas aeruginosa” value ([5]; DIN 58940) was 20000 ppm.

For `CCCCC(CC)COCC(O)CO` (stereo not drawn) [EHG, ethylhexyl glycerin], the “MIC values Candida albicans” value [1] was 2000 ppm, the “MIC values Staphylococcus aureus” value [2] was 2000 ppm and the “MIC values Aspergillus brasiliensis” value [3] was 2000 ppm. The “MIC values Escherichia coli” value [4] was 2500 ppm, the Colony counts [6, 10] was 315.000 cfu/g formulation and the Relative colony counts [6, 10] was 0.5048. It also gave a Colony counts [6, 11] of 159.000 cfu/g formulation, a Relative colony counts [6, 11] of 0.4762 and a Colony counts [6, 12] of 150.000 cfu/g formulation. It also gave a Relative colony counts [6, 12] of 0.9635, a Colony counts [6, 13] of 304.000 cfu/g formulation and a Relative colony counts [6, 13] of 0.9635. The Colony counts [6, 14] was 304.000 cfu/g formulation, the Relative colony counts [6, 14] was 0.5048 and the “MIC values Pseudomonas aeruginosa” value [5] was >20000 ppm.

For `CCCCC(O)CO` (stereo not drawn) [HD, 1,2-Hexanediol], the MIC ([1]; DIN 58940) was 20000 µg/mL, the MIC ([2]; DIN 58940) was 20000 µg/mL and the MIC ([3]; DIN 58940) was 10000 µg/mL. The MIC ([4]; DIN 58940) was 10000 µg/mL, the Colony counts ([6]; day 0, 3.0% in formulation) was 305.000 cfu/g formulation and the Relative colony counts ([6]; day 0, 3.0% in formulation) was 1.0000. The Colony counts ([6]; day 2, 3.0% in formulation) was 306.000 cfu/g formulation, the Relative colony counts ([6]; day 2, 3.0% in formulation) was 1.0033 and the Colony counts ([6]; day 7, 3.0% in formulation) was 266.000 cfu/g formulation. It also gave a Relative colony counts ([6]; day 7, 3.0% in formulation) of 0.8721, a Colony counts ([6]; day 14, 3.0% in formulation) of 96.000 cfu/g formulation and a Relative colony counts ([6]; day 14, 3.0% in formulation) of 0.3148. The Colony counts ([6]; day 28, 3.0% in formulation) was <100 cfu/g formulation, the Relative colony counts ([6]; day 28, 3.0% in formulation) was 0.0003 and the MIC ([5]; DIN 58940) was 10000 µg/mL.

For `CCCCCCCOCC(O)CO` (stereo not drawn) [Heptylglycerin], the “MIC values Candida albicans” value ([1]; DIN 58940) was 2000 ppm, the “MIC values Staphylococcus aureus” value ([2]; DIN 58940) was 2500 ppm and the “MIC values Aspergillus brasiliensis” value ([3]; DIN 58940) was 1000 ppm. For the same compound, the “MIC values Escherichia coli” value ([4]; DIN 58940) was 2000 ppm and the “MIC values Pseudomonas aeruginosa” value ([5]; DIN 58940) was 5000 ppm.

For `CCCCCCOC[C@@H](O)CO` [Hexylglycerin], the “MIC values Candida albicans” value ([1]; DIN 58940) was 6000 ppm, the “MIC values Staphylococcus aureus” value ([2]; DIN 58940) was 6000 ppm and the “MIC values Aspergillus brasiliensis” value ([3]; DIN 58940) was 4000 ppm. The “MIC values Escherichia coli” value ([4]; DIN 58940) was 4000 ppm and the “MIC values Pseudomonas aeruginosa” value ([5]; DIN 58940) was 6000 ppm.

In the case of `CCCCCCCCOCC(O)CO` (stereo not drawn) [Octylglycerin], the “MIC values Candida albicans” value ([1]; DIN 58940) is reported as 1000 ppm, the “MIC values Staphylococcus aureus” value ([2]; DIN 58940) is reported as 1000 ppm and the “MIC values Aspergillus brasiliensis” value ([3]; DIN 58940) is reported as 500 ppm. For the same compound, the “MIC values Escherichia coli” value ([4]; DIN 58940) was 1000 ppm and the “MIC values Pseudomonas aeruginosa” value ([5]; DIN 58940) was >2000 ppm.
